Data as given in article PMC5903342 (Oxidative Medicine and Cellular Longevity, 2018).
Read-outs that look alike come from different tables or passages of the source.

Legend:
[1] = test system: Salmonella enterica serovar typhimurium TA98 and TA100 strains; conditions: sodium azide or 4-nitro-o-phenylenediamine, TA98 and TA100, absence of metabolic activation; cited from earlier work
[2] = test system: CHO-K1 cells; parameters: method as in PMID 15988137; conditions: statins from 10 μM to 100 μM; cited from earlier work
[3] = DPPH free radical scavenging assay; format: biochemical; conditions: absorbance at 517 nm
Description: The free radical scavenging activity was measured by following microplate procedures as previously described. One hundred microliters of the sample dilutions with five concentration levels (varying from 0 to 2000 μM in DMSO) was added to two identical groups of wells in a 96-well microplate. The same volume of 0.1 mM DPPH-methanol solution was added to each well of one group (samples), and methanol ([…]) was added to the other group (blanks). The control was prepared by mixing the DPPH-methanol solution with the sample solvent or butylated hydroxytoluene (BHT). The solutions were mixed thoroughly, covered, and allowed to react in the dark at room temperature for 40 min. The absorbance was measured at 517 nm using a microplate reader (Quant, BioTek Instruments Inc.), and the scavenging activity was calculated from the absorbance values according to the following equation: […]. The antioxidant properties of the samples were expressed as half the maximal effective concentrations (EC50) obtained by interpolation from the linear regression analysis. BHT was used as the positive control.

[4] = test system: Salmonella enterica serovar typhimurium TA104; assay: Antimutagenicity assay (Salmonella/microsome), strain TA104; format: cell-based; conditions: atorvastatin 0 μM
Excerpt: (§1) Salmonella enterica serovar typhimurium (S. typhimurium) strains TA100, TA1535, TA104, and TA102 from the authors' laboratory stock were used as described by Maron and Ames in the antimutagenicity assay.
(§2) We carried out the coexposure protocol of the antimutagenicity assay to investigate the potential of the compound to protect against alkylation-mediated genetic mutation in S. typhimurium TA100, TA102, TA104, and TA1535 strains according to Ajith and Soja. The test proceeded both in the absence and presence of a metabolic activation system (4% S9 mix, Aroclor preinduced, from MOLTOX Inc., USA). DMSO 1% served as the negative control. […] The mixtures were incubated in a shaker at 37°C (preincubation) under light protection. After a total of 60 min of cotreatment, the mixtures were added to and mixed with 2 mL top agar containing 0.05 mmol/L L-histidine and D-biotin for the S. typhimurium strains. Each of these was then spread on a minimal glucose agar (1.5% agar, Vogel-Bonner medium E, containing 2% glucose) plate. After the top agar solidified, the plates were incubated at 37°C for 60–72 h. Each tester strain was assayed in triplicate and repeated at least twice, and the number of revertant colonies was counted for each tester strain and treatment group. The counts of revertant colonies were obtained to build a dose-response curve and calculate the percentage of reduction.

[5] = test system: Salmonella enterica serovar typhimurium TA102; assay: Antimutagenicity assay (Salmonella/microsome), strain TA102; format: cell-based; conditions: atorvastatin 0 μM
Excerpt: as §1, §2

[6] = test system: Salmonella enterica serovar typhimurium TA1535; assay: Antimutagenicity assay (Salmonella/microsome), strain TA1535; format: cell-based; conditions: atorvastatin 0 μM
Excerpt: as §1, §2

[7] = test system: Salmonella enterica serovar typhimurium TA100; assay: Antimutagenicity assay (Salmonella/microsome), strain TA100 (co-, pre- and posttreatment); format: cell-based; conditions: atorvastatin 0 μM
[8] = in vitro; format: cell-based; conditions: human, HepG2, 24 h of exposure
Description: (§3) Human hepatocellular carcinoma cells (HepG2) obtained from the American Type Culture Collection (Manassas, VA) were cultured in a minimum Eagle's medium (MEM, Gibco®, USA) containing 10% fetal bovine serum (FBS) plus 100 μg/mL streptomycin and 100 μg/mL penicillin at 37°C in a 5% CO2 atmosphere. Logarithmic-phase cells were used in all the experiments [9].
Fresh HepG2 cells were seeded at a density of 1 × 10^5/well.

[9] = test system: HepG2 cells; assay: Flow cytometry cell cycle analysis; format: cell-based, Human; conditions: 24 h
Description: The cells (1 × 10^5) were washed in PBS solution and centrifuged at 400 ×g for 5 min, and after, the cells were suspended in DNA staining solution (0.3% Triton X-100 and 50 μg/mL propidium iodide (PI) in a 43 mM citrate buffer), as previously described. After 45 minutes of treatment with 50 μg/mL ribonuclease A (Sigma, EUA), the PI fluorescence was determined (10,000 events per sample) in a Gallios flow cytometer (Beckman Coulter, USA). Data were analyzed by the Summit v4.3 software. The experiments were done at least three times, and statistical analysis was performed by one-way ANOVA followed by a Tukey's post hoc test.

[10] = test system: HepG2 cells
Description: as §3
The HepG2 cells were seeded at a density of 1 × 10^5/mL into 24-well plates (1 mL/well). […] DMSO 1% was used as the negative control. After exposure to the compounds, the cells were incubated for 24 h more and the cytogenetic studies were carried out in triplicate and N = 3 [14]. In order to determine the mitotic index and the number of cells with micronuclei, the medium was replaced by a cold methanol-glacial acetic acid (3 : 1) fixative for 30 min and the cells were then rinsed with distilled water for 2 min and air dried. […] To determine the mitotic index and the number of cells with micronuclei, 2000 cells per well (6000 cells per concentration) were analyzed using fluorescence microscopy (Reichert Univar) with an excitation wavelength of 350 nm. […] Statistical differences between the groups were analyzed by a one-way ANOVA (p < 0.01) and Tukey's post hoc test.

[11] = TA100, cotreatment protocol, +S9, CPA (150 μM) only
[12] = TA100, posttreatment protocol, +S9, CPA (150 μM) only
[13] = TA100, pretreatment protocol, +S9, CPA (150 μM) only
[14] = TA100, cotreatment protocol, −S9, MMS (100 μM) only
[15] = TA100, posttreatment protocol, −S9, MMS (100 μM) only
[16] = TA100, pretreatment protocol, −S9, MMS (100 μM) only

CC[C@H](C)C(=O)O[C@H]1C[C@@H](C)C=C2C=C[C@H](C)[C@H](CC[C@@H]3C[C@@H](O)CC(=O)O3)[C@H]21 [LOVA, lovastatin]
Antimutagenic (chemopreventive) effect against direct mutagens [1]: able to exert chemopreventive effects

CC(C)n1c(/C=C/C(O)CC(O)CC(=O)O)c(-c2ccc(F)cc2)c2ccccc21 (stereo not drawn) [fluvastatin]
Micronucleus formation after exposure to bleomycin [2]: reduced micronucleus formation

Cc1cc(C(C)(C)C)c(O)c(C(C)(C)C)c1 [BHT, butylated hydroxytoluene]
EC50 [3]: 83 ± 2 µM

O=P1(N(CCCl)CCCl)NCCCO1 (stereo not drawn) [CPA, cyclophosphamide]
His+ (revertant colonies) ([4]; TA104, +S9, CPA (150 μM) only): 1092 ± 85 | MI (mutagenicity index) ([4]; TA104, +S9, CPA (150 μM) only): 2.40 | His+ (revertant colonies) ([5]; TA102, +S9, CPA (150 μM) only): 588 ± 85 | MI (mutagenicity index) ([5]; TA102, +S9, CPA (150 μM) only): 2.1 | His+ (revertant colonies) ([6]; TA1535, +S9, CPA (150 μM) only): 56 ± 6 | MI (mutagenicity index) ([6]; TA1535, +S9, CPA (150 μM) only): 2.80 | His+ (revertant colonies) [7, 11]: 239 ± 30 | MI (mutagenicity index) [7, 11]: 2.13 | His+ (revertant colonies) [7, 12]: 278 ± 33 | MI (mutagenicity index) [7, 12]: 2.66 | His+ (revertant colonies) [7, 13]: 244 ± 8 | MI (mutagenicity index) [7, 13]: 2.44 | CC50 at 24 h ([8]; read-out: LC50): 98.7 ± 11.5 µM | sub-G1 percentage of cells ([9]; CPA only (no AVA)): 17% | polyploid subpopulation ([9]; exposure just to CPA): 13% | Micronucleus formation, fold in comparison to the negative control ([10]; 60.0 μM CPA only, 6 h and 24 h): 5-6 fold

COS(C)(=O)=O [MMS, methyl methanesulfonate]
His+ (revertant colonies) ([4]; TA104, −S9, MMS (100 μM) only): 897 ± 55 | MI (mutagenicity index) ([4]; TA104, −S9, MMS (100 μM) only): 2.24 | His+ (revertant colonies) ([5]; TA102, −S9, MMS (100 μM) only): 578 ± 55 | MI (mutagenicity index) ([5]; TA102, −S9, MMS (100 μM) only): 2.31 | His+ (revertant colonies) ([6]; TA1535, −S9, MMS (100 μM) only): 71 ± 5 | MI (mutagenicity index) ([6]; TA1535, −S9, MMS (100 μM) only): 2.84 | His+ (revertant colonies) [7, 14]: 212 ± 11 | MI (mutagenicity index) [7, 14]: 2.14 | His+ (revertant colonies) [7, 15]: 264 ± 31 | MI (mutagenicity index) [7, 15]: 2.09 | His+ (revertant colonies) [7, 16]: 230 ± 23 | MI (mutagenicity index) [7, 16]: 2.26 | CC50 ([8]; read-out: LC50 (the source's name)): 18.7 ± 6.67 µM | polyploid subpopulation ([9]; human, 20 μM): 15% | sub-G1 percentage of cells ([9]; human, 20 μM): 19% | Micronucleus formation, fold in comparison to the negative control ([10]; only MMS-exposed cells (10.0 μM MMS), 6 and 24 h): 6-7 fold

CC[C@H](C)C(=O)O[C@H]1C[C@H](O)C=C2C=C[C@H](C)[C@H](CC[C@@H](O)C[C@@H](O)CC(=O)O)[C@H]21 [pravastatin]
Micronucleus formation after exposure to bleomycin [2]: reduced micronucleus formation
